Results published in patent US20080275134A1, “Methods for Treatment of Retinal Degenerative Disease” (University of Washington, priority 2005, published 2008).
One block for each compound: values may come before it.

Biological target: T1, isomerase (Bos taurus, UniProt Q28175)
T1 construct: Purified RPE microsomes were the source of the enzymes; from tissue; host or cells: bovine retinal pigment epithelium microsomes
T1 sequence (Q28175 2-533 limits assumed): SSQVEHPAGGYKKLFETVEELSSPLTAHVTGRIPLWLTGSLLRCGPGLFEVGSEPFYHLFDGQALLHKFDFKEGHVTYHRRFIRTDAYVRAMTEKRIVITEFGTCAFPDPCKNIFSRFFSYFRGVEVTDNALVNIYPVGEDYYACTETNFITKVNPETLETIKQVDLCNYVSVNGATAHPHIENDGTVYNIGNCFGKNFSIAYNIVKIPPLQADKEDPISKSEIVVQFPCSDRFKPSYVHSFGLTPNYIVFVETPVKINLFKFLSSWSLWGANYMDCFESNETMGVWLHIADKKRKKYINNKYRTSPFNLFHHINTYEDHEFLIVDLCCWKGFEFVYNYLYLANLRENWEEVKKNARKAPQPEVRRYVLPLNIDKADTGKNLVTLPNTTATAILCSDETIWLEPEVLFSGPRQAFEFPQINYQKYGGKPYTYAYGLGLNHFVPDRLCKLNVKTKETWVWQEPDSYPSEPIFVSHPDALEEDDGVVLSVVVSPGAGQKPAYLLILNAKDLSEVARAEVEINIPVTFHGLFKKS
Test: isomerase reaction: 11-cis-retinol production by RPE microsomes from all-trans-retinol
Format: biochemical, bovine
Conditions: for IC50 / inhibition of isomerization (in words): RPE microsomes; for IC50: all-trans-retinol substrate, read-out: IC50, inhibition of 11-cis-retinol production; for inhibition of isomerization (in words): in vitro; for lowering of potency by saturation of the C13-14 double bond: relative to the 11-cis- and all-trans-isomers of Ret-NH2
Method: To test if 11-cis-retinylamine (11-cis Ret-NH2) affects isomerization and esterification, an in vitro assay was employed. In this assay both of the all-trans-retinyl esters formed in the reaction catalyzed by LRAT and 11-cis-retinol production by isomerase were measured (6). Purified RPE microsomes were the source of the enzymes, and all-trans-retinol was the substrate. […] Inhibition of isomerization by Ret-NH2 is not due to binding of CRALBP or competition with 11-cis-retinol for binding to CRALBP. […] An increased concentration of all-trans-retinol lowered the level of inhibition, as illustrated in FIG. 2B. […] Dixon's and Lineweaver-Burk plots in the standard assay conditions yielded Ki=0.1 μM for Ret-NH2 when all-trans-retinol (KM=0.3 μM) was assumed to be a substrate. […] This estimated value reflects the very potent nature of the inhibition by 11-cis-Ret-NH2.
Materials—Fresh bovine eyes were obtained from a local slaughterhouse (Schenk Packing Co., Inc., Stanwood, Wash.). Preparation of bovine RPE microsomes was performed according to previously described methods (Stecher et al., J Biol Chem 274:8577-85, 1999). All chemicals were purchased from Sigma-Aldrich (St. Louis, Mo.). 11-cis-Retinal was obtained from Dr. Rosalie Crouch (Charleston, S.C.).
Reaction conditions for isomerase and LRAT reaction—The isomerase reaction was performed essentially as described previously (Stecher et al., J Biol Chem 274:8577-85, 1999). The reaction was carried out in 10 mM BTP buffer, pH 7.5, 1% BSA, containing 1 mM ATP and 6 μM apo-CRALBP. To investigate inhibition properties of Ret-NH2 and its derivatives, RPE microsomes were preincubated for 5 min in 37° C. with the indicated compound in 10 mM BTP buffer, pH 7.5, 1% BSA, 1 mM ATP prior to addition of apo-CRALBP and all-trans-retinol. Ret-NH2 and its derivatives were delivered to the reaction mixture in 1 μl of DMF, and the same volume of DMF was added to the control reaction. Each experiment was performed three times in duplicate. The average values were used and the standard deviations were calculated.

IC50: 640 nM
Structure (SMILES): CC(C=CC1=C(C)CCCC1(C)C)=CC=CC(C)=CCN (single isomer, unassigned) [9-cis-Ret-NH2, 9-cis-retinylamine]

IC50: 730 nM
Structure (SMILES): CC(C=CC1=C(C)CCCC1(C)C)=CC=CC(C)=CCN (single isomer, unassigned) [13-cis-Ret-NH2, 13-cis-retinylamine]

inhibition of isomerization (in words): higher IC50
Structure (SMILES): CC1=C(/C=C/C(C)=C/C=C/C(C)=C/CNO)C(C)(C)CCC1 [N-hydroxyretinylamine]

The next lines start with the compound.

Structure (SMILES): CC(C=CC1=C(C)CCCC1(C)C)=CC=CC(C)CCN (stereo not shown) [VIII]
lowering of potency by saturation of the C13-14 double bond: about 10 fold

Structure (SMILES): CC1=C(/C=C/C(C)=C/C=CC(C)CCN)C(C)(C)CCC1 (stereo not shown) [VII]
lowering of potency by saturation of the C13-14 double bond: about 10 fold

Structure (SMILES): CC1=C(/C=C/C(C)=C/C=C/C(C)CCO)C(C)(C)CCC1 (stereo not drawn) [all-trans-13,14-dihydroretinol, reference compound]
inhibition of isomerization (in words): neither all-trans-thioretinol nor all-trans-13,14-dihydroretinol influenced the isomerization

Structure (SMILES): CC1=C(/C=C/C(C)=C/C=C/C(C)=C/CS)C(C)(C)CCC1 [all-trans-thioretinol, reference compound]
inhibition of isomerization (in words): neither all-trans-thioretinol nor all-trans-13,14-dihydroretinol influenced the isomerization
